What was measured:
TNFα = experiment: cells; assay type: cell-based, human; settings: Homo sapiens, Monocyte, LPS-stimulated human monocytes, TNFα by TR-FRET; read-out: EC50 TNF
IRAK4 enzyme = IRAK4 enzyme (Homo sapiens (Human), UniProt Q9NWZ3); experiment: biochemical; assay type: biochemical; settings: IRAK4 enzyme, TR-FRET, 500 μM ATP
IRAK4 enzyme, sequence (Q9NWZ3 whole entry): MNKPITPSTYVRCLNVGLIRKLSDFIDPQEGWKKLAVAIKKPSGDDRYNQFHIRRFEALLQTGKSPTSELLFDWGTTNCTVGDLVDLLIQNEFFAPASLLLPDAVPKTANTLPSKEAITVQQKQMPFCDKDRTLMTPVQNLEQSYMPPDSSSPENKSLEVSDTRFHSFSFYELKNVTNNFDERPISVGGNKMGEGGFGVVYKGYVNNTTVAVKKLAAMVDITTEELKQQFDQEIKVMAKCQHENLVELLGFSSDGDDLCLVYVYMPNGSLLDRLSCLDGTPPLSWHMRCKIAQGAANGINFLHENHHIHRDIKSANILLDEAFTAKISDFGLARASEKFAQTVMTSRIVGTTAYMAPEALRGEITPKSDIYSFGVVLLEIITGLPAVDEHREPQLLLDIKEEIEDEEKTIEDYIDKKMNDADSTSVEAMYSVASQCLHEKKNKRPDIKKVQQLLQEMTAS

| SMILES | EC50 (TNFα) [nM] | IC50 (IRAK4 enzyme) [nM] |
| --- | --- | --- |
| CC(C)(O)[C@H](F)CNC(=O)c1cnc(-c2ccc3cc(C#N)cnn23)cc1NC1CCC2(CCC(=O)N2)CC1 (stereo partly drawn) [Example 832, 6-(3-cyanopyrrolo[1,2-b]pyridazin-7-yl)-N-((R)-2-fluoro-3-hydroxy-3-methylbutyl)-4-(((5R,8r)-2-oxo-1-azaspiro[4.5]decan-8-yl)amino) nicotinamide] | 132 | 1 |
| CC(C)(O)[C@H](F)CNC(=O)c1cnc(-c2ccc3cc(C#N)cnn23)cc1NC12CC(CNC(=O)C3CC3(F)F)(C1)C2 (stereo partly drawn) [Example 833, 6-(3-cyanopyrrolo[1,2-b]pyridazin-7-yl)-4-((3-(((R)-2,2-difluorocyclo-propane-1-carboxamido)methyl)bicyclo[1.1.1]pentan-1-yl)amino)-N-((R)-2-fluoro-3-hydroxy-3-methylbutyl)nicotinamide] | 192 | 1 |
| COC(=O)NCc1ccc(Nc2cc(-c3ccc4cc(C#N)cnn34)ncc2C(=O)NC[C@@H](F)C(C)(C)O)cc1F [Example 834, (R)-methyl (4-((2-(3-cyano-pyrrolo[1,2-b]pyridazin-7-yl)-5-((2-fluoro-3-hydroxy-3-methylbutyl)carbamoyl)pyridin-4-yl)amino)-2-fluorobenzyl)carbamate] | 23 | < 1 |
| CCOc1cncc(Nc2cc(-c3ccc4cc(C#N)cnn34)ncc2C(=O)NC[C@@H](F)C(C)(C)O)c1 [Example 835, (R)-6-(3-cyanopyrrolo[1,2-b]pyridazin-7-yl)-4-((5-ethoxypyridin-3-yl)amino)-N-(2-fluoro-3-hydroxy-3-methylbutyl)nicotinamide] | 8 | < 1 |
| CCOc1cccc(Nc2cc(-c3ccc4cc(C#N)cnn34)ncc2C(=O)NC[C@@H](F)C(C)(C)O)c1 [Example 836, (R)-6-(3-cyanopyrrolo[1,2-b]pyridazin-7-yl)-4-((3-ethoxyphenyl)amino)-N-(2-fluoro-3-hydroxy-3-methylbutyl)nicotinamide] | 43 | 2 |
| CC(C)Oc1cccc(Nc2cc(-c3ccc4cc(C#N)cnn34)ncc2C(=O)NC[C@@H](F)C(C)(C)O)c1 [Example 837, (R)-6-(3-cyanopyrrolo[1,2-b]pyridazin-7-yl)-N-(2-fluoro-3-hydroxy-3-methylbutyl)-4-((3-isopropoxyphenyl)amino)nicotinamide] | 117 | 3 |
| CC(C)Cc1cccc(Nc2cc(-c3ccc4cc(C#N)cnn34)ncc2C(=O)NC[C@@H](F)C(C)(C)O)c1 [Example 838, (R)-6-(3-cyanopyrrolo[1,2-b]pyridazin-7-yl)-N-(2-fluoro-3-hydroxy-3-methylbutyl)-4-((3-isobutylphenyl)amino) nicotinamide] | > 10000 | 57 |
| CCC(=O)c1cccc(Nc2cc(-c3ccc4cc(C#N)cnn34)ncc2C(=O)NC[C@@H](F)C(C)(C)O)c1 [Example 839, (R)-6-(3-cyanopyrrolo[1,2-b]pyridazin-7-yl)-N-(2-fluoro-3-hydroxy-3-methylbutyl)-4-((3-propionylphenyl)amino) nicotinamide] | 307 | 1 |
| COc1cnc(Nc2cc(-c3ccc4cc(C#N)cnn34)ncc2C(=O)NC[C@@H](F)C(C)(C)O)cn1 [Example 840, (R)-6-(3-cyanopyrrolo[1,2-b]pyridazin-7-yl)-N-(2-fluoro-3-hydroxy-3-methylbutyl)-4-((5-methoxypyrazin-2-yl)amino)nicotinamide] | 17 | < 1 |
| CCOc1cnc(Nc2cc(-c3ccc4cc(C#N)cnn34)ncc2C(=O)NC[C@@H](F)C(C)(C)O)cn1 [Example 841, (R)-6-(3-cyanopyrrolo[1,2-b]pyridazin-7-yl)-4-((5-ethoxypyrazin-2-yl)amino)-N-(2-fluoro-3-hydroxy-3-methylbutyl)nicotinamide] | 29 | < 1 |
| COc1cncc(Nc2cc(-c3ccc4cc(C#N)cnn34)ncc2C(=O)NC[C@@H](F)C(C)(C)O)n1 [Example 842, (R)-6-(3-cyanopyrrolo[1,2-b]pyridazin-7-yl)-N-(2-fluoro-3-hydroxy-3-methylbutyl)-4-((6-methoxypyrazin-2-yl)amino)nicotinamide] | 42 | < 1 |
| CCCc1nccc(Nc2cc(-c3ccc4cc(C#N)cnn34)ncc2C(=O)NC[C@@H](F)C(C)(C)O)n1 [Example 843, (R)-6-(3-cyanopyrrolo[1,2-b]pyridazin-7-yl)-N-(2-fluoro-3-hydroxy-3-methylbutyl)-4-((2-propyl-pyrimidin-4-yl)amino)nicotinamide] | 137 | 1 |
| COc1nccc(Nc2cc(-c3ccc4cc(C#N)cnn34)ncc2C(=O)NC[C@@H](F)C(C)(C)O)n1 [Example 844, (R)-6-(3-cyanopyrrolo[1,2-b]pyridazin-7-yl)-N-(2-fluoro-3-hydroxy-3-methylbutyl)-4-((2-methoxypyrimidin-4-yl)amino)nicotinamide] | 70 | 1 |
| CCOc1cncc(Nc2cc(-c3ccc4cc(C#N)cnn34)ncc2C(=O)NC[C@@H](F)C(C)(C)O)n1 [Example 845, (R)-6-(3-cyanopyrrolo[1,2-b]pyridazin-7-yl)-4-((6-ethoxypyrazin-2-yl)amino)-N-(2-fluoro-3-hydroxy-3-methylbutyl)nicotinamide] | > 10000 | < 1 |
| COc1cc(Nc2cc(-c3ccc4cc(C#N)cnn34)ncc2C(=O)NC[C@@H](F)C(C)(C)O)ncn1 [Example 846, (R)-6-(3-cyanopyrrolo[1,2-b]pyridazin-7-yl)-N-(2-fluoro-3-hydroxy-3-methylbutyl)-4-((6-methoxy-pyrimidin-4-yl)amino) nicotinamide] | 97 | 2 |
| CCOc1cc(Nc2cc(-c3ccc4cc(C#N)cnn34)ncc2C(=O)NC[C@@H](F)C(C)(C)O)ccn1 [Example 847, (R)-6-(3-cyanopyrrolo[1,2-b]pyridazin-7-yl)-4-((2-ethoxypyridin-4-yl)amino)-N-(2-fluoro-3-hydroxy-3-methylbutyl)nicotinamide] | 69 | < 1 |
| CCOc1nccc(Nc2cc(-c3ccc4cc(C#N)cnn34)ncc2C(=O)NC[C@@H](F)C(C)(C)O)n1 [Example 848, (R)-6-(3-cyanopyrrolo[1,2-b]pyridazin-7-yl)-4-((2-ethoxypyrimidin-4-yl)amino)-N-(2-fluoro-3-hydroxy-3-methylbutyl) nicotinamide] | 112 | 2 |
| CCCOc1cncc(Nc2cc(-c3ccc4cc(C#N)cnn34)ncc2C(=O)NC[C@@H](F)C(C)(C)O)c1 [Example 849, (R)-6-(3-cyanopyrrolo[1,2-b]pyridazin-7-yl)-N-(2-fluoro-3-hydroxy-3-methylbutyl)-4-((5-propoxy-pyridin-3-yl)amino) nicotinamide] | 11 | < 1 |
| CC(C)(O)[C@H](F)CNC(=O)c1cnc(-c2ccc3cc(C#N)cnn23)cc1Nc1cnc2c(c1)OCCO2 [Example 850, (R)-6-(3-cyanopyrrolo[1,2-b]pyridazin-7-yl)-4-((2,3-dihydro-[1,4]dioxino[2,3-b]pyridin-7-yl)amino)-N-(2-fluoro-3-hydroxy-3-methylbutyl)nicotinamide] | 10 | < 1 |
| CC(C)Oc1cncc(Nc2cc(-c3ccc4cc(C#N)cnn34)ncc2C(=O)NC[C@@H](F)C(C)(C)O)c1 [Example 851, (R)-6-(3-cyanopyrrolo[1,2-b]pyridazin-7-yl)-N-(2-fluoro-3-hydroxy-3-methylbutyl)-4-((5-isopropoxypyridin-3-yl)amino)nicotinamide] | 12 | < 1 |
| COc1cc(Nc2cc(-c3ccc4cc(C#N)cnn34)ncc2C(=O)NC[C@@H](F)C(C)(C)O)cnc1OC [Example 853, (R)-6-(3-cyanopyrrolo[1,2-b]pyridazin-7-yl)-4-((5,6-dimethoxypyridin-3-yl)amino)-N-(2-fluoro-3-hydroxy-3-methylbutyl) nicotinamide] | 127 | 14 |
| CN1CCOc2cc(Nc3cc(-c4ccc5cc(C#N)cnn45)ncc3C(=O)NC[C@@H](F)C(C)(C)O)ccc21 [Example 854, (R)-6-(3-cyanopyrrolo[1,2-b]pyridazin-7-yl)-N-(2-fluoro-3-hydroxy-3-methylbutyl)-4-((4-methyl-3,4-dihydro-2H-benzo[b] [1,4]oxazin-7-yl)amino)nicotinamide] | 10 | 1 |
| CC(C)(O)[C@H](F)CNC(=O)c1cnc(-c2ccc3cc(C#N)cnn23)cc1Nc1cnc2c(c1)OCCN2 [Example 855, (R)-6-(3-cyanopyrrolo[1,2-b]pyridazin-7-yl)-4-((3,4-dihydro-2H-pyrido[3,2-b][1,4]oxazin-7-yl)amino)-N-(2-fluoro-3-hydroxy-3-methylbutyl)nicotinamide] | 9 | < 1 |
| CN1CCOc2cc(Nc3cc(-c4ccc5cc(C#N)cnn45)ncc3C(=O)NC[C@@H](F)C(C)(C)O)cnc21 [Example 856, (R)-6-(3-cyanopyrrolo[1,2-b]pyridazin-7-yl)-N-(2-fluoro-3-hydroxy-3-methylbutyl)-4-((4-methyl-3,4-dihydro-2H-pyrido[3,2-b][1,4]oxazin-7-yl)amino)nicotinamide] | 24 | 1 |
| CC(C)(O)[C@H](F)CNC(=O)c1cnc(-c2ccc3cc(C#N)cnn23)cc1Nc1cncc(OCC(F)(F)F)c1 [Example 857, (R)-6-(3-cyanopyrrolo[1,2-b]pyridazin-7-yl)-N-(2-fluoro-3-hydroxy-3-methylbutyl)-4-((5-(2,2,2-trifluoroethoxy)pyridin-3-yl)amino)nicotinamide] | 9 | < 1 |
| N#Cc1cnn2c(-c3cc(Nc4cnc5c(c4)OCCO5)c(C(=O)N[C@H]4CC[C@H](NC(=O)C5CC5)CC4)cn3)ccc2c1 [Example 858, 6-(3-cyanopyrrolo[1,2-b]pyridazin-7-yl)-N-((1r,4r)-4-(cyclopropanecarboxamido)cyclohexyl)-4-((2,3-dihydro-[1,4]dioxino[2,3-b]pyridin-7-yl)amino)nicotinamide] | 20 | < 1 |

From patent US10336762B2 (priority 2017, dated 2019)
